Data taken from ChEMBL document CHEMBL2163249, “Exploration of natural compounds as sources of new bifunctional scaffolds targeting cholinesterases and beta amyloid aggregation: the case of chelerythrine” (Bioorg Med Chem, 2012).
Starred links: 1 amine or outer side, 2 acyl side, 3 side chain; linkers in the order of their positions; H or OH if unused. Positions of bridges follow the written chain, without caps; N, C: chain ends. Non-standard residues stand in square brackets, D forms with d. Residues, ends and D or L forms follow the SMILES beside them. Chains are numbered I, II in the order given. Actinocin(9to1) = Cc1c2oc3c(C)ccc(C(=O)[*:1])c3nc-2c(C(=O)[*:2])c(N)c1=O; NMeV = CN[C@H](C(=O)O)C(C)C; Sar = CNCC(=O)O

Assays:
[1] = target: Cholinesterase (Equus caballus) (UniProt P81908); conditions: at 2 mg/mL
Chain of Cholinesterase (Equus caballus) (P81908 whole entry): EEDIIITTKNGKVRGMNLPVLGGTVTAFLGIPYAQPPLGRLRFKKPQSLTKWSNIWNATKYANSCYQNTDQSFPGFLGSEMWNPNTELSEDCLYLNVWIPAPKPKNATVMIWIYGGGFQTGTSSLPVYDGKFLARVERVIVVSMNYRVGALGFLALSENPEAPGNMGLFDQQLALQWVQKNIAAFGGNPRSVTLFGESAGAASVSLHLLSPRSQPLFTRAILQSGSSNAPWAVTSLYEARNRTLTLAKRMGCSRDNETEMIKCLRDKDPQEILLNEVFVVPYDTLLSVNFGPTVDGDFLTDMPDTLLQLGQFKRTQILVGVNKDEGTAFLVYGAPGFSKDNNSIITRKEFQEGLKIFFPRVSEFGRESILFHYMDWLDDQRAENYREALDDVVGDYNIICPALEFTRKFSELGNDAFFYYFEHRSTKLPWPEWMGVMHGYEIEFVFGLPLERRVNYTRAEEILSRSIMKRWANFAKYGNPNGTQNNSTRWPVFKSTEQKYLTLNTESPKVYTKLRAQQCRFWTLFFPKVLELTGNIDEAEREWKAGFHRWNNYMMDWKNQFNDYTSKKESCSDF
Description: Inhibition of horse BChE at 2 mg/ml by Ellman's method

[2] = target: Acetylcholinesterase (Electrophorus electricus) (UniProt O42275); conditions: at 2 mg/mL
Description: Inhibition of electric eel AChE at 2 mg/ml by Ellman's method

| Molecule | inhibition [1] [%] | inhibition [2] [%] |
| --- | --- | --- |
| CC(=O)N[C@H]1CN2CC[C@H](O)[C@@H]2[C@@H](O)[C@@H]1O | 9.19 | 2.39 |
| C=CCc1ccc(O)c(-c2ccc(O)c(CC=C)c2)c1 | 7.62 | -3.48 |
| CCN1C[C@]2(COC)CC[C@H](O)[C@@]34C5C[C@@H]6[C@@H](OC)C[C@](O)(C(CC23)C14)C5[C@H]6OC(C)=O (some centres undefined) | -0.23 | 28.9 |
| Oc1cc(O)c2c(c1)O[C@H](c1ccc(O)c(O)c1)[C@@H](O)C2 | -5.96 | 7.03 |
| COC1=C(C(C)=O)C2=C(C)Cc3c(OC)c(=O)c(O)c4cc(OC)c5c(OC)cc(O)c6c(c2c3c4c56)C1=O | -0.88 | 4.6 |
| CO[C@@H]1[C@H](O)C[C@@H](O[C@@H]2C[C@H](Oc3cc4cc5c(c(O)c4c(O)c3C)C(=O)[C@@H](O[C@H]3C[C@@H](O[C@H]4C[C@@H](O[C@H]6C[C@](C)(O)[C@@H](OC(C)=O)[C@H](C)O6)[C@H](O)[C@@H](C)O4)[C@H](O)[C@@H](C)O3)[C@H]([C@H](OC)C(=O)[C@@H](O)[C@@H](C)O)C5)O[C@H](C)[C@@H]2OC(C)=O)O[C@@H]1C | 3.95 | 5.47 |
| COc1cc2ccc(=O)oc2cc1O | 0.6 | 4.78 |
| O=C(/C=C/c1ccc(O)cc1)CC(=O)/C=C/c1ccc(O)cc1 | 7.13 | 2 |
| CC(=O)O[C@H]1C(=O)[C@@]2(C)[C@H]([C@H](OC(=O)c3ccccc3)[C@]3(O)C[C@H](O)C(C)=C1C3(C)C)[C@]1(OC(C)=O)CO[C@@H]1C[C@@H]2O | 5.3 | 27.8 |
| COc1ccc(/C=C/C(=O)c2c(O)cc(OC)cc2OC)cc1 | -9.95 | -6.03 |
| CCOC(=O)C1=C[C@]2(CC)CCCN3CCc4c(n1c1ccccc41)[C@@H]32 | 29.1 | 12.3 |
| C[C@@H]1O[C@@H](OC[C@H]2O[C@@H](Oc3cc(O)c4c(=O)cc(-c5ccc(O)cc5)oc4c3)[C@H](O)[C@@H](O)[C@@H]2O)[C@H](O)[C@H](O)[C@H]1O | -5.05 | 23 |
| CC(C)CCNC(=O)[C@H](CC(C)C)NC(=O)[C@H]1O[C@@H]1C(=O)O | 10.6 | -1.94 |
| NEOMYCIN SULFATE | 10.5 | -9.42 |
| C[C@H]1C/C=C/[C@H]2[C@@H]3O[C@]3(C)[C@@H](C)[C@H]3[C@H](Cc4ccccc4)NC(=O)[C@]32OC(=O)O/C=C/[C@@](C)(O)C1=O | 9.25 | 5.91 |
| CCN1C[C@]2(COC)CC[C@H](OC)[C@]34C5C[C@@H]6[C@@H](OC)C[C@@]7(OCO[C@@]7(C13)[C@@H](O)C24)C5[C@H]6OC (some centres undefined) | -6.6 | 23.4 |
| CN1[C@@H](CC(=O)c2ccccc2)CCC[C@H]1C[C@H](O)c1ccccc1 | 30.4 | -0.17 |
| CCOC(=O)[C@H]1O[C@@H]1C(=O)N[C@@H](CC(C)C)C(=O)NCCC(C)C | -0.73 | 1.24 |
| O=c1c(-c2ccc(O)cc2)coc2cc(O[C@@H]3O[C@H](CO)[C@@H](O)[C@H](O)[C@H]3O)cc(O)c12 | 1.82 | 24.6 |
| CN(C)CCc1ccc(O)cc1 | -2.06 | -4.35 |
| C[C@H]1COC2=C1C(=O)C(=O)c1c2ccc2c1CCCC2(C)C | 12.1 | 3.33 |

| Molecule | inhibition [1] [%] | inhibition [2] [%] |
| --- | --- | --- |
| C/C=C(/C)C(=O)O[C@H]1C(C)=C2[C@H]([C@@H]1OC(=O)CCCCCCC)[C@@](C)(OC(C)=O)C[C@H](OC(=O)CCC)[C@@]1(O)[C@H]2OC(=O)[C@@]1(C)O | 0.82 | 9.89 |
| C[C@@H]1O[C@@H](O[C@H]2[C@H](Oc3cc(O)c4c(=O)cc(-c5ccc(O)cc5)oc4c3)O[C@H](CO)[C@@H](O)[C@@H]2O)[C@H](O)[C@H](O)[C@H]1O | -2.37 | 27.2 |
| O=C1Cc2c([nH]c3ccc(Br)cc23)-c2ccccc2N1 | -1 | -7.55 |
| CC1=CC(=O)c2ccccc2C1=O | -1.75 | 17.8 |
| C[C@H]1CC[C@@H]2[C@@H](C)[C@H]3[C@H](C[C@H]4[C@@H]5CC[C@H]6C[C@@H](O)CC[C@]6(C)[C@H]5CC[C@]34C)N2C1 | 41.9 | 5.43 |
| CC[C@]12CCCN3CCc4c(n(c5ccccc45)[C@@](O)(C(=O)OC)C1)[C@@H]32 | 3.22 | 7.29 |
| CC[C@@H](C(=O)[C@@H](C)[C@@H](O)[C@H](C)CCc1ccc(C)c(O)c1C(=O)O)[C@H]1O[C@](CC)([C@H]2CC[C@](O)(CC)[C@H](C)O2)C[C@@H]1C | 10.5 | -1.88 |
| COc1c2ccoc2cc2oc(=O)ccc12 | 10.3 | 21.3 |
| Cc1cc(O)c2c(=O)c3c(O)cc(O)c4c5c(O)cc(O)c6c(=O)c7c(O)cc(C)c8c1c2c(c34)c(c78)c65 | 14.3 | -7.15 |
| Cc1c2oc3c(C)ccc(C(=O)N[C@@H]4C(=O)N[C@H](C(C)C)C(=O)N5CCC[C@H]5C(=O)N(C)CC(=O)N(C)[C@@H](C(C)C)C(=O)O[C@@H]4C)c3nc-2c(C(=O)N[C@@H]2C(=O)N[C@H](C(C)C)C(=O)N3CCC[C@H]3C(=O)N(C)CC(=O)N(C)[C@@H](C(C)C)C(=O)O[C@@H]2C)c(N)c1=O (I: T[dV]P[Sar][NMeV] / II: T[dV]P[Sar][NMeV]; ester I:1-I:C, II:1-II:C; linker I:N-II:N via Actinocin(9to1)) | 3.31 | -2.56 |
| CCCC[C@@H](C)[C@@H](OC(=O)C[C@@H](CC(=O)O)C(=O)O)[C@H](C[C@@H](C)CCCCCC[C@@H](O)C[C@H](O)[C@H](C)N)OC(=O)C[C@@H](CC(=O)O)C(=O)O | 15.1 | -8.37 |
| COc1c2c(nc3ccccc13)OC(C(C)(O)CO)C2 (centres undefined) | -2.71 | 22.5 |
| COc1ccc2c(c1)[nH]c1c(C)nccc12 | 12.1 | 50.9 |
| CCC[C@@H]1C[C@@H](C(=O)N[C@@H]([C@H]2O[C@H](SC)[C@H](O)[C@@H](O)[C@H]2O)[C@@H](C)O)N(C)C1 | -2.36 | -3.63 |
| C[C@H]1CC[C@@H]2[C@@H](C)[C@H]3[C@H](C[C@H]4[C@@H]5CC=C6C[C@@H](O[C@@H]7O[C@H](CO)[C@H](O)[C@H](O[C@@H]8O[C@H](CO)[C@@H](O)[C@H](O)[C@H]8O)[C@H]7O[C@@H]7O[C@@H](C)[C@H](O)[C@@H](O)[C@H]7O)CC[C@]6(C)[C@H]5CC[C@]34C)N2C1 | 12.2 | 9.15 |
| c1ccc2c(Cc3c[nH]c4ccccc34)c[nH]c2c1 | 21.7 | 4.61 |
| CC[C@H]1CN2CCc3cc(OC)c(OC)cc3[C@@H]2C[C@@H]1C[C@H]1NCCc2cc(O)c(OC)cc21 | -6.9 | 11.9 |
| O=c1cc(-c2ccccc2)oc2cc(O)c(O)cc12 | 1.82 | 23.1 |
| COc1cc2c(cc1OC)[C@H](C)NCC2 | -4.57 | -3.39 |
| Cc1nccc2c1[nH]c1ccccc12 | 39.4 | 22.2 |
| CN1CCc2cc3c(cc2[C@H]1[C@@H]1OC(=O)c2c1ccc1c2OCO1)OCO3 | 0.63 | 20.7 |

| Molecule | inhibition [1] [%] | inhibition [2] [%] |
| --- | --- | --- |
| C[C@H]1CCC/C=C/[C@@H]2C[C@H](O)C[C@H]2[C@H](O)/C=C/C(=O)O1 | 5.24 | -3.21 |
| CC(=O)C1=C(O)C=C2Oc3c(C(C)=O)c(O)c(C)c(O)c3[C@@]2(C)C1=O | 4.28 | 2.06 |
| O=C(/C=C/c1ccc(O)c(O)c1)O[C@H](Cc1ccc(O)c(O)c1)C(=O)O | -3.64 | 14.9 |
| COc1cc(C(=O)OC2CC3CCC(C2)N3C)ccc1O (centres undefined) | 6.73 | 31.5 |
| COc1c(C)c2c(c(O)c1C/C=C(\C)CCC(=O)O)C(=O)OC2 | -7.04 | -6.25 |
| CC1(C)CC[C@]2(C(=O)O)CC[C@]3(C)C(=CC[C@@H]4[C@@]5(C)CC[C@H](O)C(C)(C)[C@@H]5CC[C@]43C)[C@@H]2C1 | 0.92 | 10.2 |
| C[C@@]12CCc3occc3[C@H]1CC[C@]13CC(=O)[C@H](CC[C@H]12)C3 | -0.09 | -5.73 |
| O=C(CCc1ccc(O)cc1)c1c(O)cc(O)cc1O[C@@H]1O[C@H](CO)[C@@H](O)[C@H](O)[C@H]1O | 5.38 | -6.94 |
| CCC12C=CCN3CC[C@@]4(c5ccc(OC)cc5N(C)[C@H]4[C@@](O)(C(=O)OC)[C@@H]1OC(C)=O)[C@@H]32 (some centres undefined) | -7.45 | 2.49 |
| C[C@H]([C@H](O)CCC(C)(C)O)[C@H]1CC[C@@]2(O)C3=CC(=O)[C@@H]4C[C@@H](O)[C@@H](O)C[C@]4(C)[C@H]3CC[C@]12C | -1.9 | -0.57 |
| O=C1C[C@@H](c2ccc(O)cc2)Oc2cc(O)cc(O)c21 | 0.68 | 7.24 |
| C/C1=C\CC(C)(C)/C=C/C(=O)/C(C)=C/CC1 | 4.2 | -4.84 |
| O=C(/C=C/c1ccc(O)c(O)c1)O[C@@H]1C[C@](O)(C(=O)O)C[C@@H](O)[C@H]1O | 4.8 | 10.8 |
| CN1CCc2cc(O)c(O)cc2C1Cc1ccc(O)c(O)c1 (centres undefined) | 24.1 | 28.1 |
| CN1C2CCCC1CC(=O)C2 | 1.42 | 16.5 |
| COC(=O)C[C@](O)(CCC(C)(C)O)C(=O)O[C@@H]1C(OC)=C[C@]23CCCN2CCc2cc4c(cc2[C@H]13)OCO4 | 1.48 | -5.71 |
| C/C=C1\[C@H]2C=C(C)C[C@]1(N)c1ccc(=O)[nH]c1C2 | 11.8 | 97.3 |
| COc1ccc(C(=O)O[C@H]2CC[C@@]3(C)[C@@H]4CC[C@H]5[C@]6(O)C[C@H](O)[C@@]7(O)[C@@H](CN8C[C@@H](C)CC[C@H]8[C@@]7(C)O)[C@]6(O)C[C@@]53O[C@]24O)cc1OC | -4.13 | 21.8 |
| IVERMECTIN | -3.98 | 17.8 |
| C[C@@H]1[C@H](O)[C@@H](C)/C=C/C=C/C=C/C=C/C=C/C=C/C=C/[C@H](O[C@@H]2O[C@H](C)[C@@H](O)[C@H](N)[C@@H]2O)C[C@@H]2O[C@](O)(C[C@@H](O)C[C@@H](O)[C@H](O)CC[C@@H](O)C[C@@H](O)CC(=O)O[C@H]1C)C[C@H](O)[C@H]2C(=O)O | 11.9 | 8.91 |
